pEC50: −log10 of the molar value.
Legend:
HL-60 cells [1] = assay: Cell cycle analysis by flow cytometry; type: cell-based, human; settings: 10^−7M, 72 hr
Description: For cell cycle analysis, cells were exposed to 10^−7M 1,25(OH)2D3, 10^−7M paricalcitol or vehicle control for either 3 or 4 days. Total cells, both in suspension and adherent, were collected, washed, suspended in cold PBS. Then cells were fixed in 75% chilled methanol and stained with propidium iodine. Cell cycle status was analyzed on a Becton Dickinson Flow Cytometer.
Cell cycle analysis was performed as follows: after treatment of 5×10^4 of cells with a selected compound, cells were collected, washed and suspended in cold PBS. Cells were fixed in chilled 75% methanol and stained with propidium iodine. Cell cycle status was analyzed on a Becton Dickinson Flow Cytometer used standart protocols.

24-hydroxylase mRNA = assay: RT-PCR of 24-hydroxylase mRNA in HL-60 cells; type: cell-based, human; settings: paricalcitol 0.01 μM, arsenic trioxide 0.8 μM, after 24 hrs
Description: HL-60 and NB-4 myeloid leukemia cell lines were treated with paricalcitol (0.01 μM for HL-60, 0.1 μM for NB-4) and/or arsenic trioxide (0.8 μM for HL-60, 0.6 μM for NB-4). Control cells were treated with vehicle alone. […] Cell lysates were also made and used for Western blot which was probed with antibodies to C/EBPβ. (B) Cell lysate of HL-60 cells were made after 3 days and used for Western blot which was probed sequentially with antibodies to Bcl-2, BclXL and Bax (C) Cell lysates of HL-60 cells were made after 1, 2 or 3 days and used for Western blot which was probed sequentially with antibodies to phosphorylated ERK. (D) After pretreatment either with or without […] of PD98059 for 1 hour, HL-60 cells were treated with paricalcitol (0.01 μM) and/or arsenic trioxide (0.8 μM) for 2 days. Control cells were treated with vehicle alone. CD14 expression was measured by flow cytometry.
In FIG. 6B, HT-29 colon cancer cells were treated with paricalcitol (10^−7M) for 0, 6, 12 or 24 hrs and RNA was harvested. Expression of 24 hydroxylase mRNA was analysed by RT-PCR. The amounts of mRNA were normalized by comparison to 18S RNA. In FIG. 6C, mononuclear cells extracted from spleens of either wild type or VDR knock-out mice were treated with paricalcitol (10^−8M) for either 12 or 24 hrs, and RNA was harvested. Expression of 24 hydroxylase mRNA was analysed by RT-PCR. […]

SW837 cells = assay: Western blot of cell lysates; type: cell-based, human; settings: 10^−7M, 72 hrs
Description: Western blot analysis was used to determine the levels of proteins involved in cell cycle and differentiation. […] After centrifugation at 15,000×g for 15 min at 4° C., the suspension was collected. Protein concentrations were quantitated using the Bio-Rad assay (Bio-Rad Labolatories, Hercules, Calif.). […] The blots were developed using the Supersignal West Pico Chemiluminescent Substrate Kit (Pierce, Rockford, Ill.). In FIG. 4C, HT-29 and SW837 cells were cultured with either paricalcitol (10^−7M) or 1,25(OH)2D3 (10^−7M) for 72 hrs. Cell lysates were prepared and analyzed by Western blot which was probed sequentially with antibodies to COX-1 and COX-2 (Santa Cruz Biotechnology). Control cells were treated with vehicle alone. The amount of protein was normalized by comparison to the quantity of GAPDH.

HT-29 cells = assay: Soft agar colony assay (clonal proliferation); type: cell-based; settings: Homo sapiens, 336 h, colonies counted after 14 days, read-out: concentration that caused 50% inhibition (ED50) of clonal growth
Description: (§1) A soft agar colony assay was used to test the effect of paricalcitol and 1,25(OH)2D3 on various cancer cell lines. For the soft agar colony assay, trypsinized and washed single-cell suspensions of cells were enumerated and plated into 24 well flat bottom plates using a two-layer soft agar system with a total of 1×10^3 cells/well in a volume of […], as described previously (Kubota et al., supra, 1998).
(§2) Cell lines used in this study were obtained from American Type Culture Collection (Rockville, Md.) and were maintained according to their recommendations. Myeloid leukemia cell lines (HL-60, NB-4, THP-1, U937), lymphoma cell lines (Raji, Ramos, Daudi, Jurkat, Jeko-1, JUDHL) and myeloma cell lines (RPMI-8226, ARH-77, NCI-H929) were grown in RPMI 1640 with 10% FCS. Breast cancer cell lines (MCF-7, MDA-MB-231), brain cancer cell lines (U343, U118, U138, U373, U87), and colon cancer cell lines (HT-29, SW837, SW480, SW620, HCT116) were maintained in DMEM with 10% FCS. Endometrial carcinoma cell line, AN-3 was maintained in Alpha Minimum Essential Medium (a-MEM) with 10% FCS.

SW837 = assay: Soft agar colony assay (clonal proliferation); type: cell-based; settings: Homo sapiens, 336 h, colonies counted after 14 days, read-out: concentration that caused 50% inhibition (ED50) of clonal growth
Description: as §1, §2

NB-4 cells = assay: Soft agar colony assay (clonal proliferation); type: cell-based; settings: Homo sapiens, 336 h, colonies counted after 14 days, read-out: concentration that caused 50% inhibition (ED50) of clonal growth
Description: as §1, §2

NCI-H929 cells = assay: Soft agar colony assay (clonal proliferation); type: cell-based; settings: Homo sapiens, 336 h, colonies counted after 14 days, read-out: concentration that caused 50% inhibition (ED50) of clonal growth
Description: as §1, §2

HL-60 cells [2] = assay: Soft agar colony assay (clonal proliferation); type: cell-based; settings: Homo sapiens, 336 h, colonies counted after 14 days, read-out: concentration that caused 50% inhibition (ED50) of clonal growth
Description: as §1, §2

THP-1 = assay: Soft agar colony assay (clonal proliferation); type: cell-based; settings: Homo sapiens, 336 h, colonies counted after 14 days, read-out: concentration that caused 50% inhibition (ED50) of clonal growth
Description: as §1, §2

[3] = tested on: HT-29 human colon cancer tumors; assay: HT-29 tumors growing in nude mice; type: in vivo; settings: 100 ng/mouse intraperitoneally 3 days a week, vs diluant control
Description: HT-29 cells were bilaterally injected subcutaneously into nude mice, forming two tumors per mouse. The mice were divided randomly into control and experimental groups. […] In FIG. 5A, tumor volumes were measured every week. The mean volume±SD of 10 tumors in each group is shown. […] In FIG. 5B, After 4 weeks of therapy, tumors were removed from each group and weighed. […] For the mouse studies, BNX nu/nu nude mice at 8 weeks of age were purchased from Harlan Sprangue Dawley, Inc. (Indianapolis, Ind.) and their care was in accord with the guidelines of Cedars-Sinai Research Institute. They were maintained in pathogen-free conditions with irradiated chow. […] The mice were blindly randomized to the experimental and control groups. Treatment was started on the day after the injection of […] cells and continued for 6 weeks. […] Tumor sizes were measured every week and calculated by the formula: A (length)×B (width)×C (height)×0.5236. […] All mice were euthanized at the end of the study, and the tumors were fixed in 10% neutral buffered formalin and embedded in paraffin for histological analysis. The data were analyzed by Student's t test.

## C[C@H](/C=C/[C@H](C)C(C)(C)O)[C@H]1CC[C@H]2/C(=C/C=C3C[C@@H](O)C[C@H](O)C3)CCC[C@]12C [paricalcitol, 19-nor-1,25, (OH)2D3]
HL-60 cells [1]
  decrease of cells in S phase: 33%
  increase of cells in G0/G1 phase: 16%
  increase of cells in G2/M phase: 17%
24-hydroxylase mRNA
  mRNA levels of 24-hydroxylase: increased
SW837 cells
  decrease of COX-2 expression: 40%
  effect on COX-1 expression: without affecting
HT-29 cells
  pEC50: 7.77
SW837
  pEC50: 7.34
NB-4 cells
  pEC50: 8.47
NCI-H929 cells
  pEC50: 10.70
HL-60 cells [2]
  pEC50: 8.62
THP-1
  pEC50: 8.24
[3]; after 4 weeks, p=0.0004
  mean tumor weights: significantly suppressed
[3]; p=0.03
  growth of colon cancer tumors (tumor volumes): significantly suppressed

Source: patent US20050054620A1, “Paricalcitol as a chemotherapeutic agent” (priority 2003, published 2005)
